The subject of experiment [1] is Pseudomonas aeruginosa. As to the kind of experiment: Anti-bioflim activity against Pseudomonas aeruginosa PAO1 assessed as inhibition of bioflim formation incubated for 24 hrs by crystal violet staining based assay. Type of experiment: functional.
Experiment [2] concerns Pseudomonas aeruginosa. Kind of experiment: Anti-bioflim activity against Pseudomonas aeruginosa PAO1 assessed as inhibition of bioflim formation measured at MBIC50 concentration incubated for 24 hrs by crystal violet staining based assay. Type of experiment: functional.
Experiment [3] can be described thus: Binding affinity to recombinant Pseudomonas aeruginosa LecA expressed in Escherichia coli assessed as dissociation constant by isothermal titration calorimetry.
The target in experiment [4] is Fucose-binding lectin PA-IIL (Pseudomonas aeruginosa (strain ATCC 15692 / DSM 22644 / CIP 104116 / JCM14847 / LMG 12228 / 1C / PRS 101 / PAO1), UniProt Q9HYN5). Kind of experiment: Binding affinity to recombinant Pseudomonas aeruginosa lecB expressed in Escherichia coli assessed as dissociation constant by isothermal titration calorimetry.
Chain of Fucose-binding lectin PA-IIL (Q9HYN5 whole entry): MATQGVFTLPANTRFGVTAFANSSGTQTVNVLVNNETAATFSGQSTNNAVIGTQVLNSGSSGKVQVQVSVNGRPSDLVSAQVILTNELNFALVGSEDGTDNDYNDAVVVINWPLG
The test system of experiment [5] is Pseudomonas aeruginosa. As to the kind of experiment: Binding affinity to recombinant Pseudomonas aeruginosa LecA expressed in Escherichia coli assessed as gibbs free energy change by isothermal titration calorimetry. (In general: Isothermal titration calorimetry measures the heat released or taken up as one component is titrated into another.)
The target of experiment [6] is Fucose-binding lectin PA-IIL (Pseudomonas aeruginosa (strain ATCC 15692 / DSM 22644 / CIP 104116 / JCM14847 / LMG 12228 / 1C / PRS 101 / PAO1)) (UniProt Q9HYN5). Kind of experiment: Binding affinity to recombinant Pseudomonas aeruginosa LecB expressed in Escherichia coli assessed as gibbs free energy change by isothermal titration calorimetry.
Chain of Fucose-binding lectin PA-IIL (Pseudomonas aeruginosa (strain ATCC 15692 / DSM 22644 / CIP 104116 / JCM14847 / LMG 12228 / 1C / PRS 101 / PAO1)) (Q9HYN5 as listed by the source): as the sequence (Q9HYN5 whole entry) above
Experiment [7] concerns Pseudomonas aeruginosa. As to the kind of experiment: Binding affinity to recombinant Pseudomonas aeruginosa LecA expressed in Escherichia coli assessed as change in enthalpy by isothermal titration calorimetry.
Experiment [8] has as its target Fucose-binding lectin PA-IIL (Pseudomonas aeruginosa (strain ATCC 15692 / DSM 22644 / CIP 104116 / JCM14847 / LMG 12228 / 1C / PRS 101 / PAO1)) (UniProt Q9HYN5). As to the kind of experiment: Binding affinity to recombinant Pseudomonas aeruginosa LecB expressed in Escherichia coli assessed as change in enthalpy by isothermal titration calorimetry.
The test system of experiment [9] is Pseudomonas aeruginosa. Kind of experiment: Binding affinity to recombinant Pseudomonas aeruginosa LecA expressed in Escherichia coli assessed as change in entropy by isothermal titration calorimetry.
Experiment [10] has as its target Fucose-binding lectin PA-IIL (Pseudomonas aeruginosa (strain ATCC 15692 / DSM 22644 / CIP 104116 / JCM14847 / LMG 12228 / 1C / PRS 101 / PAO1)) (UniProt Q9HYN5). As to the kind of experiment: Binding affinity to recombinant Pseudomonas aeruginosa LecB expressed in Escherichia coli assessed as change in entropy by isothermal titration calorimetry.
Experiment [11] concerns Pseudomonas aeruginosa. As to the kind of experiment: Antibacterial activity against Pseudomonas aeruginosa PAO1 assessed as inhibition of bacterial growth for complete inhibition of bacterial growth incubated for 24 hrs. The experiment is classed as functional.

Active and inactive are the calls of the source. No cut-off for these calls is given here. Some results are limits rather than exact numbers.

Usually Kd stands for the constant that tells how readily two partners part at equilibrium. Broadly, the MIC is the lowest concentration found to suppress growth.

Turning to `NC[C@H]1O[C@H](O[C@H]2[C@H](O)[C@@H](O[C@H]3O[C@H](CO)[C@@H](O)[C@H](N)[C@H]3O)[C@H](N)C[C@@H]2N)[C@H](N)C[C@@H]1O` [TOBRAMYCIN], the MBIC50 in experiment [1] was found to be 2 µM. Besides, the “inhibition (INH)” value in [2] was 92%.
As to `C[C@@H]1O[C@@H](OCCOCCn2cc(COCC(COCc3cn(CCOCCO[C@@H]4O[C@@H](C)[C@@H](O)[C@@H](O)[C@@H]4O)nn3)N=[N+]=[N-])nn2)[C@@H](O)[C@H](O)[C@@H]1O.OC[C@H]1O[C@@H](OCc2cn(CCCOc3cc4c(OCCn5cc(CO[C@@H]6O[C@H](CO)[C@H](O)[C@H](O)[C@H]6O)nn5)cc3Cc3cc(OCCn5cc(CO[C@@H]6O[C@H](CO)[C@H](O)[C@H](O)[C@H]6O)nn5)c(cc3OCCn3cc(CO[C@@H]5O[C@H](CO)[C@H](O)[C@H](O)[C@H]5O)nn3)Cc3cc(OCCn5cc(CO[C@@H]6O[C@H](CO)[C@H](O)[C@H](O)[C@H]6O)nn5)c(cc3OCCn3cc(CO[C@@H]5O[C@H](CO)[C@H](O)[C@H](O)[C@H]5O)nn3)Cc3cc(OCCn5cc(CO[C@@H]6O[C@H](CO)[C@H](O)[C@H](O)[C@H]6O)nn5)c(cc3OCCn3cc(CO[C@@H]5O[C@H](CO)[C@H](O)[C@H](O)[C@H]5O)nn3)Cc3cc(OCCCn5cc(CO[C@@H]6O[C@H](CO)[C@H](O)[C@H](O)[C@H]6O)nn5)c(cc3OCCn3cc(CO[C@@H]5O[C@H](CO)[C@H](O)[C@H](O)[C@H]5O)nn3)C4)nn2)[C@H](O)[C@@H](O)[C@H]1O`, in experiment [1], the MBIC50 was over 150 µM. The Kd is 646 nM in experiment [3] and 474 nM in experiment [4]. Besides, the deltaG in experiment [5] was -8.46 kcal/mol; in experiment [6] it was -8.63 kcal/mol. In addition, the figures for the deltaH in experiment [7] and in experiment [8] were -25.1 kcal/mol and -14.7 kcal/mol, respectively. In addition, in experiment [9], the -TΔS was 16.6 kcal/mol. In addition, in [10], the deltaS is 6.07 kcal/mol. Besides, in experiment [2], the MBIC50 entry is “inactive”. Further, the MIC in experiment [11] was over 150 µM.
For `CO[C@@H]1O[C@H](CO)[C@H](O)[C@H](O)[C@H]1O`, the Kd in experiment [3] amounted to 55700 nM. Besides, in [5], the deltaG is -5.81 kcal/mol. Also, the deltaH in [7] was -4.54 kcal/mol.
As for `OC[C@H]1O[C@@H](OCc2cn(CCOc3cc4c(OCCn5cc(CO[C@@H]6O[C@H](CO)[C@H](O)[C@H](O)[C@H]6O)nn5)cc3Cc3cc(OCCn5cc(CO[C@@H]6O[C@H](CO)[C@H](O)[C@H](O)[C@H]6O)nn5)c(cc3OCCn3cc(CO[C@@H]5O[C@H](CO)[C@H](O)[C@H](O)[C@H]5O)nn3)Cc3cc(OCCn5cc(CO[C@@H]6O[C@H](CO)[C@H](O)[C@H](O)[C@H]6O)nn5)c(cc3OCCn3cc(CO[C@@H]5O[C@H](CO)[C@H](O)[C@H](O)[C@H]5O)nn3)Cc3cc(OCCn5cc(CO[C@@H]6O[C@H](CO)[C@H](O)[C@H](O)[C@H]6O)nn5)c(cc3OCCn3cc(CO[C@@H]5O[C@H](CO)[C@H](O)[C@H](O)[C@H]5O)nn3)Cc3cc(OCCn5cc(CO[C@@H]6O[C@H](CO)[C@H](O)[C@H](O)[C@H]6O)nn5)c(cc3OCCn3cc(CO[C@@H]5O[C@H](CO)[C@H](O)[C@H](O)[C@H]5O)nn3)C4)nn2)[C@H](O)[C@@H](O)[C@H]1O`, the Kd in [3] stood at 145 nM. Also, the deltaG in experiment [5] is -9.35 kcal/mol. Moreover, the deltaH in experiment [7] is -37.5 kcal/mol. Besides, the deltaS in experiment [9] is 28.2 kcal/mol.

The record behind these values is ChEMBL document CHEMBL5030542, “Pillar[5]arene-Based Polycationic Glyco[2]rotaxanes Designed as Pseudomonas aeruginosa Antibiofilm Agents” (J Med Chem, 2021).
